Assay results taken from ChEMBL document CHEMBL1155749, “Five new polyoxygenated cholestane bisdesmosides from the bulbs of Galtonia candicans” (J Nat Prod, 2001).
In brackets after ≈: the same amount, converted by molar mass.

Test system: HL-60
Test: Cytotoxicity against human HL60 cells after 72 hrs by MTT assay
Assay type: functional, cell-based
Conditions: HL-60, 72 h

SMILES	IC50 [µg/mL]
CC(=O)O[C@@H]1[C@@H](O)[C@H](C)O[C@@H](O[C@H]2C[C@H]3[C@@H]4CC=C5C[C@@H](O[C@@H]6O[C@H](CO)[C@@H](O)[C@H](O)[C@H]6O)CC[C@]5(C)[C@H]4CC[C@]3(C)[C@H]2[C@H](C)[C@@H](O)CC=C(C)C)[C@@H]1O	6.8 (≈ 8.87 µM)
COc1cc([C@@H]2c3cc4c(cc3[C@@H](O[C@@H]3O[C@@H]5CO[C@@H](C)O[C@H]5[C@H](O)[C@H]3O)[C@H]3COC(=O)[C@H]23)OCO4)cc(OC)c1O [ETOPOSIDE]	0.25 (≈ 0.425 µM)
